Laboratory results as given in publication PMC6437697 (Journal of Medicinal Chemistry, 2019).

How the values were obtained:
Assay in all cases: KINOMEscan
Type in all cases: binding
Conditions in all cases: read-out: % control activity remaining
LRRK2(G2019S) = target: T1, LRRK2(G2019S) (Homo sapiens, UniProt Q5S007, G2019S)
T1 construct: purchased Eurofins DiscoverX KINOMEscan

TNIK = target: T2, TNIK (Homo sapiens, UniProt Q9UKE5)
T2 construct: purchased Eurofins DiscoverX KINOMEscan

SNARK = target: T3, SNARK (Homo sapiens, UniProt Q9H093)
T3 construct: purchased Eurofins DiscoverX KINOMEscan
T3 sequence (Q9H093 1-628): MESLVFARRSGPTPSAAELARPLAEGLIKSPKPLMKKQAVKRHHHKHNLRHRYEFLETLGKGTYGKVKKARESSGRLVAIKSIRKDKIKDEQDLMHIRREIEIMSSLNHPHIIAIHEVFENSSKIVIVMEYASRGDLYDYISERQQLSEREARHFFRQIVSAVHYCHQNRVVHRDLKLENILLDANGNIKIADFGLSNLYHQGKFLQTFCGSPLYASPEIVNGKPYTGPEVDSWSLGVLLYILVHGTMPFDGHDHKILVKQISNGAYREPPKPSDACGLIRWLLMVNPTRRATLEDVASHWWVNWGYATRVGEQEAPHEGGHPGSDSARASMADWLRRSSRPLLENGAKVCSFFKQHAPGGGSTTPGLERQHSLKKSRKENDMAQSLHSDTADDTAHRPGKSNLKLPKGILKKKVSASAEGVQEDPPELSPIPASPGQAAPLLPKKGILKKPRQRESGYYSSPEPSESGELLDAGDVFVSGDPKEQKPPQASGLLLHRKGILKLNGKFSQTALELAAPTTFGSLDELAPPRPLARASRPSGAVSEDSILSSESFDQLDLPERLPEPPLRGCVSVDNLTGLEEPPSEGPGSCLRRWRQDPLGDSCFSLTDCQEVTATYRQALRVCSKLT

BMPR1B = target: T4, BMPR1B (Homo sapiens, UniProt O00238)
T4 construct: purchased Eurofins DiscoverX KINOMEscan

CHEK2 = target: T5, CHEK2 (Homo sapiens, UniProt O96017)
T5 construct: purchased Eurofins DiscoverX KINOMEscan

BLK = target: T6, BLK (Homo sapiens, UniProt P51451)
T6 construct: purchased Eurofins DiscoverX KINOMEscan

DYRK1B = target: T7, DYRK1B (Homo sapiens, UniProt Q9Y463)
T7 construct: purchased Eurofins DiscoverX KINOMEscan

MAP4K3 = target: T8, MAP4K3 (Homo sapiens, UniProt Q8IVH8)
T8 construct: purchased Eurofins DiscoverX KINOMEscan
T8 sequence (Q8IVH8 1-894): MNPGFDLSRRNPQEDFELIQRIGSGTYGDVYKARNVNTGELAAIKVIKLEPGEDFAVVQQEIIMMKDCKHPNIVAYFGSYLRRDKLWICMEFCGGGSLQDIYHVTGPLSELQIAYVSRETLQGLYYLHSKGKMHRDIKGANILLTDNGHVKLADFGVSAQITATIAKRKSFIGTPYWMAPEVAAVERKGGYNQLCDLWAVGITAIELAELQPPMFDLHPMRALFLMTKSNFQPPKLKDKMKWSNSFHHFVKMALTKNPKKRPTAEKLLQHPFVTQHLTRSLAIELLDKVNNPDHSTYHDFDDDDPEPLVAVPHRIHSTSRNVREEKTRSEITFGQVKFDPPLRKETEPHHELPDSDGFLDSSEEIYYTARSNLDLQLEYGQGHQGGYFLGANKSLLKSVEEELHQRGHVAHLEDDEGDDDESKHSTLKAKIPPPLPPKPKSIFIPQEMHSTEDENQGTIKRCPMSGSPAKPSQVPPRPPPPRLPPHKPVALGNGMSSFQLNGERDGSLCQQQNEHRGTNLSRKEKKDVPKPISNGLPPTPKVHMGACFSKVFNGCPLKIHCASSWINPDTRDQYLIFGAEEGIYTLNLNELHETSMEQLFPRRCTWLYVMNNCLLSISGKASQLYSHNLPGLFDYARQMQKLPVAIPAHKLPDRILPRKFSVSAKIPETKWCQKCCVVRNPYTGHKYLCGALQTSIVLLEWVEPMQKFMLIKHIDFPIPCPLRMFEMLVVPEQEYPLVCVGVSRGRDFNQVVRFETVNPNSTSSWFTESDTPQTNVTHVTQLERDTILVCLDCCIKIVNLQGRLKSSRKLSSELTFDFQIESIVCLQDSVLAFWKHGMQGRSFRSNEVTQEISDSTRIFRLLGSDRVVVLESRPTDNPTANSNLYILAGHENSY

RAF1 = target: T9, RAF1 (Homo sapiens, UniProt P04049)
T9 construct: purchased Eurofins DiscoverX KINOMEscan

DAPK2 = target: T10, DAPK2 (Homo sapiens, UniProt Q9UIK4)
T10 construct: purchased Eurofins DiscoverX KINOMEscan

[1] = target: T11, RSK3(Kin.Dom.1-N-terminal) (Homo sapiens, UniProt Q15349)
T11 construct: RSK3(Kin.Dom.1-N-terminal); purchased Eurofins DiscoverX KINOMEscan

MEK5 = target: T12, MEK5 (Homo sapiens, UniProt Q13163)
T12 construct: purchased Eurofins DiscoverX KINOMEscan
T12 sequence (Q13163 1-448): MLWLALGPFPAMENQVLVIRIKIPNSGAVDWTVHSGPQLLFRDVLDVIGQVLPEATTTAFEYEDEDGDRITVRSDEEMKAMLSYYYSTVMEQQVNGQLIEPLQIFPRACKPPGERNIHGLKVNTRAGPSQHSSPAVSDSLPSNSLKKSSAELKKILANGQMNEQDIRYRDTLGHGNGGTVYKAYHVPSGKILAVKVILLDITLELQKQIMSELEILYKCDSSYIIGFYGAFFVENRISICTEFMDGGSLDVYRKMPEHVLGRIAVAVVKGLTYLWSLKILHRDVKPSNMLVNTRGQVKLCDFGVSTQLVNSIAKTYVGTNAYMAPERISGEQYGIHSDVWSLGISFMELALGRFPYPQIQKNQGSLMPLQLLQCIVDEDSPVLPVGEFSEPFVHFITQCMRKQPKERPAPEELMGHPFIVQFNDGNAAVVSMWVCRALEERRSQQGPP

T6 sequence (P51451 whole entry): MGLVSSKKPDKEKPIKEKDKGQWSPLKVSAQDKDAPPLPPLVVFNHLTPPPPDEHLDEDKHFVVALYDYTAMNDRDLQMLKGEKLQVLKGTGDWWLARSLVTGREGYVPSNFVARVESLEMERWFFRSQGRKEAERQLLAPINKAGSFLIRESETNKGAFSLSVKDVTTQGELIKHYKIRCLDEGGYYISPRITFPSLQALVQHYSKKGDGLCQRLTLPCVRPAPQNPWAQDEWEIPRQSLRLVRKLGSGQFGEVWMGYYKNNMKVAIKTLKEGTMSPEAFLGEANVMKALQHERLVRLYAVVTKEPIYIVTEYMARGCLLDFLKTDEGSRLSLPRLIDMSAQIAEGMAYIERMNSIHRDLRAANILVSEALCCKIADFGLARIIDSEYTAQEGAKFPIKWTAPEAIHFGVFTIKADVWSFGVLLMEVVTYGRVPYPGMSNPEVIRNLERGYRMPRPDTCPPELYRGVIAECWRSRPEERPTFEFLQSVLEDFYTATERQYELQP
T1 sequence (Q5S007 whole entry G2019S): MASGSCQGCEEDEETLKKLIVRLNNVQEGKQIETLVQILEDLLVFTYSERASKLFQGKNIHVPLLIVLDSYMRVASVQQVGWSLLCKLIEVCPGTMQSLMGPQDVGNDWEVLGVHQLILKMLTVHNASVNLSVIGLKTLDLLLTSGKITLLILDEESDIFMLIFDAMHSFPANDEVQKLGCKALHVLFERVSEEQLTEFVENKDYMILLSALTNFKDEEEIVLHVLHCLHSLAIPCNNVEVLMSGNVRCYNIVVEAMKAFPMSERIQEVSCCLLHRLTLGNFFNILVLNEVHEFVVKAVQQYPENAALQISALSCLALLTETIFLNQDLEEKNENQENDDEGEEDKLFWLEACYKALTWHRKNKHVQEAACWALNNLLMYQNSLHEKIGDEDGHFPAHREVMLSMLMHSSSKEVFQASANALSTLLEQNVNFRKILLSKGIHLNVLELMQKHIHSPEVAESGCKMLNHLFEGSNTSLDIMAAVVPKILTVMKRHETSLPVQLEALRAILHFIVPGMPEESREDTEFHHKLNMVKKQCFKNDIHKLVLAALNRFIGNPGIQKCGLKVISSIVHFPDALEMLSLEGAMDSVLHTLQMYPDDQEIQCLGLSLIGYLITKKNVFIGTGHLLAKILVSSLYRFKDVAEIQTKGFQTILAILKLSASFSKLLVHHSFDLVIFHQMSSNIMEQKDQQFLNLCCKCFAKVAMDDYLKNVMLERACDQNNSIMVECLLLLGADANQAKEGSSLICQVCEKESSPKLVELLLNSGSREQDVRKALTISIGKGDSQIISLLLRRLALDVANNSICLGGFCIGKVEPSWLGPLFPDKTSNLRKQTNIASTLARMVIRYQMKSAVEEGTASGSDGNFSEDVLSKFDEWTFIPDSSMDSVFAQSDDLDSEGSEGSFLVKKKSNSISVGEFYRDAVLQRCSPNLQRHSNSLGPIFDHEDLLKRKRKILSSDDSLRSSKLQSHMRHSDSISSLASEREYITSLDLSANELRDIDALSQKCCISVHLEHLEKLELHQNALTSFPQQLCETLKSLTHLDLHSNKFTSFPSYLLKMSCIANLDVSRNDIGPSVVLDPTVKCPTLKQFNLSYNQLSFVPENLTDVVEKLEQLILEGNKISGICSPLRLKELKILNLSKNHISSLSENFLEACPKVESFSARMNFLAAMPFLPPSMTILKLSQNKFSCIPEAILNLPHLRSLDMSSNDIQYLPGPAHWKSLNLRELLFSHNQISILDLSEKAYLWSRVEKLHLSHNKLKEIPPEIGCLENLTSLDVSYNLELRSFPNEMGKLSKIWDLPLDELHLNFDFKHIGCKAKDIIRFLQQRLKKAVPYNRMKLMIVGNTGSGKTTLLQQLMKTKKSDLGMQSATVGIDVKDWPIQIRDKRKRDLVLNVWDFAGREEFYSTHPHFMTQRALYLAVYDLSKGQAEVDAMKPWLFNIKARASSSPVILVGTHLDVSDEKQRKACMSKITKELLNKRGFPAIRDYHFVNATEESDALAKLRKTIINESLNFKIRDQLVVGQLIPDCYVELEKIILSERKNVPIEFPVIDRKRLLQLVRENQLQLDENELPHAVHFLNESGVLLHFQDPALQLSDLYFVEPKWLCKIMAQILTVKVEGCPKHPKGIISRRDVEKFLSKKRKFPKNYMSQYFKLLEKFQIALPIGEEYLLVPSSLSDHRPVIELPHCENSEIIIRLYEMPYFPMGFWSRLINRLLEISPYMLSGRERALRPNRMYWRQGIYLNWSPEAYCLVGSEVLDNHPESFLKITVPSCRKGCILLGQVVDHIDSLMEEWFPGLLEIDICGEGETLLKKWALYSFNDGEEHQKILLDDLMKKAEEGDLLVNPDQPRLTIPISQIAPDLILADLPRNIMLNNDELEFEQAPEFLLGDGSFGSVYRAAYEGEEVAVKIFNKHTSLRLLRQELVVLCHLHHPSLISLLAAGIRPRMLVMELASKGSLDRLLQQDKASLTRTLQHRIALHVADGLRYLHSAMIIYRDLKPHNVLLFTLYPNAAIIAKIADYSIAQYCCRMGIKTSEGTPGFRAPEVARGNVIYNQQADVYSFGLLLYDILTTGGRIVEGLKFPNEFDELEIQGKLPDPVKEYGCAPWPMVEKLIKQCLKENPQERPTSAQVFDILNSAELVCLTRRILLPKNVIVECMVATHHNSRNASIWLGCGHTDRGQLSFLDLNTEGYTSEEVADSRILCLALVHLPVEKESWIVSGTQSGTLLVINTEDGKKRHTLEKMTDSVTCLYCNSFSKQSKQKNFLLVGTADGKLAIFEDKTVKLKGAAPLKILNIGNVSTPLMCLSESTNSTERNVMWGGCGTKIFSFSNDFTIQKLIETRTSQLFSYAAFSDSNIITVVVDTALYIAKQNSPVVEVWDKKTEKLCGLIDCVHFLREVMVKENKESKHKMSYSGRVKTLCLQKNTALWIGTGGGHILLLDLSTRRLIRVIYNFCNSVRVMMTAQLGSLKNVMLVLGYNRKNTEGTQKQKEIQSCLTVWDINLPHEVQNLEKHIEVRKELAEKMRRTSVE
T11 sequence (Q15349 59-318 limits assumed): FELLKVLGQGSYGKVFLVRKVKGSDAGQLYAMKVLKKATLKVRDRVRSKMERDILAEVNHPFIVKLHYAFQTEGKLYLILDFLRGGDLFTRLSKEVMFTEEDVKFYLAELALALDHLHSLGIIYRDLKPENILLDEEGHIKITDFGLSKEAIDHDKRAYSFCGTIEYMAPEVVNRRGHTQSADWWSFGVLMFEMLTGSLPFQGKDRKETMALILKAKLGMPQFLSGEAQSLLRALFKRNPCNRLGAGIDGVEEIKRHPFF
T9 sequence (P04049 whole entry): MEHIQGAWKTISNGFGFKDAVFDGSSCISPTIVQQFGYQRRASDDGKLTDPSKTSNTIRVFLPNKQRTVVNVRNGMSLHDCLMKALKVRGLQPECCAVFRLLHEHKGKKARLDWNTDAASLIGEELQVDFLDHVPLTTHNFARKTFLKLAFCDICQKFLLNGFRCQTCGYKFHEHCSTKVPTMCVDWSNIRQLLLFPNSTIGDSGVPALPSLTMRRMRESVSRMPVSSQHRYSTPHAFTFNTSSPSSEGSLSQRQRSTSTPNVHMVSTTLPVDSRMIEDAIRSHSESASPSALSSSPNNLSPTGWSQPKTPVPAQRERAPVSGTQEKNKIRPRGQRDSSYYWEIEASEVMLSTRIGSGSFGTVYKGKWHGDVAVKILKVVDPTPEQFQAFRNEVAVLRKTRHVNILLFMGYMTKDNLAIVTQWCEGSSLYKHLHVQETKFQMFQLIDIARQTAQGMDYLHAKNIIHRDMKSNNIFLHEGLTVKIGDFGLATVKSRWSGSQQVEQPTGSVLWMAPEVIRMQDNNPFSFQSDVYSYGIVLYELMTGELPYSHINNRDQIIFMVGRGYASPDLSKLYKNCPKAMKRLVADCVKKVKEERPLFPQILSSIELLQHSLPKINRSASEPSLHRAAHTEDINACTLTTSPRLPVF
T5 sequence (O96017 whole entry): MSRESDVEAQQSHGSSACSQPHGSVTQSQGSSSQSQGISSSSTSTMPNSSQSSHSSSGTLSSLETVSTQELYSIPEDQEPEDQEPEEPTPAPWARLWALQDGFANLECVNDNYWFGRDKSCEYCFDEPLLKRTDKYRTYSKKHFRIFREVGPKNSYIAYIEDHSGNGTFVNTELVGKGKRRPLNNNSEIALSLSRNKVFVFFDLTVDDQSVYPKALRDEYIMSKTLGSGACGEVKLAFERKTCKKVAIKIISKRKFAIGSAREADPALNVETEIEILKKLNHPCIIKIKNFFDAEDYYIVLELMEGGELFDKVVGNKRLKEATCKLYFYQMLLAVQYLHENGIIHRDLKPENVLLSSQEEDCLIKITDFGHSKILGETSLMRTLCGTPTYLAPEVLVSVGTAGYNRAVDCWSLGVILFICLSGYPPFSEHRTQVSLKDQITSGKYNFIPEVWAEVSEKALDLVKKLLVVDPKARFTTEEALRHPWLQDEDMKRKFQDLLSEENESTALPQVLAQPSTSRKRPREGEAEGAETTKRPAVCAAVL
T4 sequence (O00238 14-502): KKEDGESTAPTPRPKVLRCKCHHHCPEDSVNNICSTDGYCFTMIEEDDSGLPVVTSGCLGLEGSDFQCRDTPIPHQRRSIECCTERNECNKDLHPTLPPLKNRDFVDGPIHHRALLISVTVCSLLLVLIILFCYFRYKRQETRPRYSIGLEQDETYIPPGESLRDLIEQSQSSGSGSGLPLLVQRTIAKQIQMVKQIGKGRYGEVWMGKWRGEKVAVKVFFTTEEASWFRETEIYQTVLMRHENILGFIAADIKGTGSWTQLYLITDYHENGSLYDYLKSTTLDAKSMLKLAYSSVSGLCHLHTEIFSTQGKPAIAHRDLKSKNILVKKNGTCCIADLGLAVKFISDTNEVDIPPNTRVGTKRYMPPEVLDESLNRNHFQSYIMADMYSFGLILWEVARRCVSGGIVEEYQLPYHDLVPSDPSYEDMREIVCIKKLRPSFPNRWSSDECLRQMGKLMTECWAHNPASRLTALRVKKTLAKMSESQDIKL

SMILES | remaining binding at 1 µM (LRRK2(G2019S)) | remaining binding at 1 µM (TNIK) | remaining binding at 1 µM (SNARK) | remaining binding at 1 µM (BMPR1B) | remaining binding at 1 µM (CHEK2) | remaining binding at 1 µM (BLK) | remaining binding at 1 µM (DYRK1B) | remaining binding at 1 µM (MAP4K3) | remaining binding at 1 µM (RAF1) | remaining binding at 1 µM (DAPK2) | remaining binding at 1 µM [1] | remaining binding at 1 µM (MEK5)
Clc1cc(NCC2CC2)c2ncc(-c3ccc4[nH]ncc4c3)n2n1 [compound 2, 6-Chloro-N-(cyclopropylmethyl)-3-(1H-indazol-5-yl)imidazo[1,2-b]pyridazin-8-amine] | 91% | 80% | 99% | 100% | 88% | 53% | 1% | 71% | 99% | 91% | 82% | 85%
O=C(CN1CCOCC1)N[C@H]1CC[C@H](Nc2cc(Cl)nn3c(-c4ccc5[nH]ncc5c4)cnc23)CC1 [compound 26] | 76% | 47% | 73% | 100% | 61% | 95% | 0.85% | 92% | 100% | 69% | 52% | 95%
CN1CCC(CNc2cc(Cl)nn3c(-c4cc5nc(Nc6ccccc6)[nH]c5cc4F)cnc23)CC1 [compound 31, 6-Chloro-3-(6-fluoro-2-(phenylamino)-1H-benzo[d]imidazol-5-yl)-N-((1-methylpiperidin-4-yl)methyl)imidazo[1,2-b]pyridazin-8-amine] | 88% | 97% | 88% | 67% | 100% | 79% | 63% | 99% | 100% | 98% | 78% | 71%
